The subject of experiment [1] is human skin primary fibroblast cells. The experiment can be described thus: Intracellular transduction of fusion protein into skin cells, Western blot analysis. It is filed as cell-based. Here is the method: The human skin primary fibroblast cells obtained from Catholic University medical school (Korea) were cultured in Dulbecco's modified Eagle's medium (DMEM) containing 20 mM HEPES/NaOH (pH 7.4), 5 mM NaHCO3, 10% fetal bovine serum (FBS) and antibiotics ([…], 100 U/ml penicillin) at 37° C. under a humidified condition of 95% air and 5% CO2. For the transduction of Pep-1-FK506 binding proteins, skin cells were grown about […] to confluence on a 6-well plate. The culture medium was then replaced with fresh solution containing 10% fetal bovine serum. After skin cells were treated with one of 3 kinds of fusion protein of the FK506 binding protein (Pep-1 peptide is bound C-, N- or C-/N-terminus of FK506 binding protein respectively) for 1 hr, the cells were then treated with trypsin-EDTA and washed with phosphate-buffered saline (PBS). Thereafter the cells were harvested for the preparation of cell extracts to perform Western blot analysis.
Western blot analysis was performed to identify intracellular transduction of the fusion protein of FK506 binding protein. The protein was purified in nature form. […]
The transduced Pep-1-FK506BP proteins on the polyacrylamide gel were electrophoretically transferred to a nitrocellulose membrane. […]
(In general: A western blot detects proteins with antibodies after separation by electrophoresis.)

Another experiment concerns cyclooxygenase-2. The experiment in a line: Immunity inhibition effect: lipopolysaccharide-induced cyclooxygenase-2 expression in skin cells, Western blot. The class given is cell-based, human. Here is the method: Thereafter, one of 3 kinds of the fusion protein of FK506BP was added to the each group of cells, respectively. After lipopolysaccharides were added, the expression of cyclooxygenase-2 was monitored via the Western Blot analysis.

Another experiment deals with epidermis of mouse. The experiment in a line: Penetration of fusion protein into epidermis of mouse. The note with it: in vivo.

For the substance “Pep-1-FK506BP: Fusion protein of human FK506 binding protein with Pep-1 peptide (SEQ ID NO: 3) and six histidines at the amino terminus; Seq. No. 7”, in experiment [1] (native fusion protein, 0.5-5 μM for 60 min and 5 μM for 10-60 min (FIG. 3)), the “transduction into skin cells (western blot)” value is “transduced into skin cells in a time- and concentration-dependent manner”. Besides, the “time in which the protein was transduced” value in experiment [1] (skin cells treated with 5 μM for 10-60 min (FIG. 3B)) was at most 10 min. Moreover, the “apoptosis induced by lipopolysaccharides” value with cyclooxygenase-2 is given as “inhibited apoptosis”. The “effect on lipopolysaccharide-induced cyclooxygenase-2 expression, treatment together with FK506” value in the experiment on cyclooxygenase-2 (fusion protein together with FK506, compared with fusion protein alone) is listed as “more effective”. Further, the “expression of cyclooxygenase-2 induced by lipopolysaccharides” value in the experiment with cyclooxygenase-2 (western blot (FIG. 5), 10 μM fusion protein) is on record as “inhibited”. Further, the “penetration into epidermis of mouse” value with epidermis of mouse is “effectively penetrated”.

(Values after US7902346B2, “Fusion protein comprising FK506 binding protein and DNA encoding the same” (Industry Academic Cooperation Foundation, Hallym University, priority 2006, dated 2011).)
